molecular target: recombinant Pseudomonas aeruginosa LpxC (Pseudomonas aeruginosa (strain ATCC 15692 / DSM 22644 / CIP 104116 / JCM 14847 / LMG 12228 / 1C / PRS 101 / PAO1), UniProt P47205); assay: Inhibition of LpxC enzymatic activity (fluorescamine assay); assay type: biochemical; conditions: recombinant P. aeruginosa LpxC 5 nM, substrate 10 μM, 25° C., 120 minutes; read-out: IC50
Method: The degree of inhibition of the enzymatic activity of recombinant Pseudomonas aeruginosa LpxC by the compounds of the present disclosure under in vitro conditions was determined using the following method.
The experimental procedure is briefly described as follows: The test compound was first dissolved in DMSO to prepare a 10 mM stock solution. The reaction was carried out in a 96-well microplate. First, 20 μL of recombinant Pseudomonas aeruginosa LpxC (purchased from Signalway Antibody, product number AP74647-2) was added to each well, with a final concentration of 5 nM. 5 μL of the compound to be tested was then added, and the compound was diluted 4 times to 8 concentration points with a concentration range of 0.61-10,000 nM. 5 μL of LpxC substrate UDP-3-O—(R-3-hydroxydecanoyl)-GlcNAc (purchased from Biosynth Carbosynth, product number: mu75071) was added, with a final concentration of the substrate of 10 μM. The plate was incubated at 25° C. for 120 minutes. Then 20 μL of 2.0 mg/mL fluorescamine (purchased from sigmaaldrich, product number: F9015, solvent: 1:1 dimethylformamide/acetonitrile) was added to the reaction system, and mixed well for 10 minutes of reaction. Finally, 50 μL of 200 mM sodium phosphate buffer (pH 8.0) was added to terminate the reaction. Reading was carried out using a microplate reader (BMG), and the excitation and emission wavelengths were 390 and 495 nm respectively. By comparing with the fluorescence intensity ratio of the control group ([…]), the percentage inhibition rate of the compound at each concentration was calculated.

Structure (SMILES) | IC50
C[C@H](O)c1nccn1Cc1cc(-c2ccc(C#Cc3ccc(C(C)(C)N4CCOCC4)cc3)cc2)on1 [Example 94, (S)-1-(1-((5-(4-((4-(2-morpho-linopropan-2-yl)phenyl)ethynyl)phenyl)isoxazol-3-yl)methyl)-1H-imidazol-2-yl)ethan-1-ol] | 0.0765 µM
C[C@H](O)c1nccn1Cc1cc(-c2ccc(C#Cc3ccc(Cn4ccnc4)cc3)cc2)on1 [Example 98, (S)-1-(1-((5-(4-((4-((1H-imida-zol-1-yl)methyl)phenyl)ethynyl)phenyl)isoxazol-3-yl)methyl)-1H-imidazol-2-yl)ethan-1-ol] | 0.0785 µM
CC(=O)c1ccc(C#Cc2ccc(-c3cc(Cn4ccnc4[C@H](C)O)no3)cc2)cn1 [Example 103, (S)-1-(5-((4-(3-((2-(1-hydroxyethyl)-1H-imidazol-1-yl)methyl)isoxazol-5-yl)phenyl)ethynyl)pyridin-2-yl)ethan-1-one] | 0.0468 µM
C[C@H](O)c1nccn1Cc1cc(-c2ccc(C#Cc3ccc(C(=O)NCC(=O)O)cc3)cc2)on1 [Example 74, (S)-(4-((4-(3-((2-(1-hydroxy-ethyl)-1H-imidazol-1-yl)methyl)isoxazol-5-yl)phenyl)ethynyl)benzoyl)glycinate] | 0.0212 µM
C[C@H](O)c1nccn1Cc1cc(-c2ccc(C#Cc3ccc(CN4CCC(O)C(F)(F)C4)cc3)cc2)on1 (stereo partly drawn) [Example 97, 3,3-difluoro-1-(4-((4-(3-((2-((S)-1-hydroxyethyl)-1H-imidazol-1-yl)methyl)isoxazol-5-yl)phenyl)ethynyl)benzyl) piperidin-4-ol] | 0.0319 µM
C[C@H](O)c1nccn1Cc1cc(-c2ccc(C#Cc3ccc(CN4CC(C#N)C4)nc3)cc2)on1 [Example 119, (S)-1-((5-((4-(3-((2-(1-hydroxyethyl)-1H-imidazol-1-yl)methyl)isoxazol-5-yl)phenyl)ethynyl)pyridin-2-yl)methyl)azetidin-3-carbonitrile] | 0.00742 µM
C[C@H](O)c1nccn1Cc1cc(-c2ccc(C#Cc3ccc(S(N)(=O)=O)cc3)cc2)on1 [Example 83, (S)-4-((4-(3-((2-(1-hydroxy-ethyl)-1H-imidazol-1-yl)methyl)isoxazol-5-yl)phenyl)ethynyl) benzenesulfonamide] | 0.0547 µM
C[C@H](O)c1nccn1Cc1cc(-c2ccc(C#Cc3ccc(C(=O)N4CC(O)C4)cc3)cc2)on1 [Example 68, (S)-(3-hydroxyazetidin-1-yl)(4-((4-(3-((2-(1-hydroxyethyl)-1 H-imidazol-1-yl)methyl)isoxazol-5-yl)phenyl)ethynyl)phenyl)methanone] | 0.0683 µM
C[C@H](O)c1nccn1Cc1cc(-c2ccc(C#Cc3ccc(C(=O)NCCO)nc3)cc2)on1 [Example 105, (S)-N-(2-hydroxyethyl)-5-((4-(3-((2-(1-hydroxyethyl)-1H-imidazol-1-yl)methyl)isoxazol-5-yl)phenyl)ethynyl) picolinamide] | 0.0226 µM
C[C@H](O)c1nccn1Cc1cc(-c2ccc(C#Cc3ccc(N4CCC(O)CC4)cc3)cc2)on1 [Example 41, (S)-1-(4-((4-(3-((2-(1-hydroxyethyl)-1H-imidazol-1-yl)methyl)isoxazol-5-yl)phenyl)ethynyl)phenyl)piperidin-4-ol] | 0.0263 µM
C[C@H](O)c1nccn1Cc1cc(-c2ccc(C#Cc3ccc(OCCN4CCOCC4)cc3)cc2)on1 [Example 80, (S)-1-(1-((5-(4-((4-(2-morpho-linoethoxy)phenyl)ethynyl)phenyl)isoxazol-3-yl)methyl)-1H-imidazol-2-yl)ethan-1-ol] | 0.0649 µM
C[C@H](O)c1nccn1Cc1cc(-c2ccc(C#Cc3ccc(CN4CC(CC#N)C4)nc3)cc2)on1 [Example 118, (S)-2-(1-((5-((4-(3-((2-(1-hydroxyethyl)-1H-imidazol-1-yl)methyl)isoxazol-5-yl)phenyl)ethynyl)pyridin-2-yl)methyl)azetidin-3-yl)acetonitrile] | 0.0165 µM
C[C@H](O)c1nccn1Cc1cc(-c2ccc(C#Cc3ccc(CNCC(=O)O)nc3)cc2)on1 [Example 116] | 0.0479 µM
C[C@H](O)c1nccn1Cc1cc(-c2ccc(C#Cc3ccc(OC4CCC(C(=O)O)CC4)cc3)cc2)on1 (stereo partly drawn) [Example 79, (S)-4-(4-((4-(3-((2-(1-hydroxyethyl)-1H-imidazol-1-yl)methyl)isoxazol-5-yl)phenyl)ethynyl)phenoxy)cyclohexane-1-carboxylic acid] | 0.0425 µM
C[C@H](O)c1nccn1Cc1cc(-c2ccc(C#Cc3ccc(CN4CC(CC(N)=O)C4)nc3)cc2)on1 [Example 122, (S)-2-(1-((5-((4-(3-((2-(1-hydroxyethyl)-1H-imidazol-1-yl)methyl)isoxazol-5-yl)phenyl)ethynyl)pyridin-2-yl)methyl)azetidin-3-yl)acetamide] | 0.00671 µM
C[C@H](O)c1nccn1Cc1cc(-c2ccc(C#Cc3ccc(C#N)nc3)cc2)on1 [Example 120, (S)-5-((4-(3-((2-(1-hydroxyethyl)-1H-imidazol-1-yl)methyl)isoxazol-5-yl)phenyl)ethynyl)picolinonitrile] | 0.0771 µM
C[C@H](O)c1nccn1Cc1cc(-c2ccc(C#Cc3ccc(CN4CCOCC4)cc3)cn2)no1 [Example 104, (S)-1-(1-((3-(5-((4-(morpholino-methyl)phenyl)ethynyl)pyridin-2-yl)isoxazol-5-yl)methyl)-1H-imidazol-2-yl)ethan-1-ol] | 0.0586 µM
C[C@H](O)c1nccn1Cc1cc(-c2ccc(C#Cc3ccc(CN4CC(CO)C4)nc3)cc2)on1 [Example 113, (S)-1-(1-((5-(4-((6-((3-(hydroxymethyl)azetidin-1-yl)methyl)pyridin-3-yl)ethynyl)phenyl)isoxazol-3-yl)methyl)-1H-imidazol-2-yl)ethan-1-ol] | 0.0246 µM
C[C@H](O)c1nccn1Cc1cc(-c2ccc(C#Cc3ccc(CN4CC(O)C4)nc3)cc2)on1 [Example 121, (S)-1-((5-((4-(3-((2-(1-hydroxyethyl)-1H-imidazol-1-yl)methyl)isoxazol-5-yl)phenyl)ethynyl)pyridin-2-yl)methyl)azetidin-3-ol] | 0.0223 µM
C[C@H](O)c1nccn1Cc1cc(-c2ccc(C#Cc3ccc(CN4CC(C(N)=O)C4)nc3)cc2)on1 [Example 123, (S)-1-((5-((4-(3-((2-(1-hydroxyethyl)-1H-imidazol-1-yl)methyl)isoxazol-5-yl)phenyl)ethynyl)pyridin-2-yl)methyl)azetidin-3-carboxamide] | 0.00822 µM
C[C@H](O)c1nccn1Cc1cc(-c2ccc(C#Cc3ccc(CN4CC(C(=O)O)C4)nc3)cc2)on1 [Example 117, (S)-1-((5-((4-(3-((2-(1-hydroxyethyl)-1H-imidazol-1-yl)methyl)isoxazol-5-yl)phenyl)ethynyl)pyridin-2-yl)methyl)azetidin-3-carboxylic acid] | 0.0185 µM
C[C@H](O)c1nccn1Cc1cc(-c2ccc(C#Cc3ccccc3C(=O)O)cc2)on1 [Example 106, (S)-2-((4-(3-((2-(1-hydroxyethyl)-1H-imidazol-1-yl)methyl)isoxazol-5-yl)phenyl)ethynyl) benzoic acid] | 0.0689 µM

Reference: patent US20240382465A1, “AROMATIC ACETYLENE DERIVATIVE, AND PREPARATION METHOD THEREFOR AND USE THEREOF” (priority 2021, published 2024)
